Publication PMC8066102, “Metabolic Profiles of New Unsymmetrical Bisacridine Antitumor Agents in Electrochemical and Enzymatic Noncellular Systems and in Tumor Cells” (Pharmaceuticals, 2021)

Tests used:
Type in all cases: in vitro ADME
UGT 2B4 = biological target: T1, UGT 2B4 (Homo sapiens, UniProt P06133); test: Glucuronidation with recombinant UGT2B4; parameters: key: −: the lack of UGT activity; +: the significant UGT activity; conditions: 0.05 mM compound, 1 mg/mL UGT, 5 mM UDPGA
T1 construct: purchased Corning, NY, USA (through DIAG-MED, Poland); host or cells: baculovirus-insect cells (Supersomes)
T1 sequence (P06133 24-528): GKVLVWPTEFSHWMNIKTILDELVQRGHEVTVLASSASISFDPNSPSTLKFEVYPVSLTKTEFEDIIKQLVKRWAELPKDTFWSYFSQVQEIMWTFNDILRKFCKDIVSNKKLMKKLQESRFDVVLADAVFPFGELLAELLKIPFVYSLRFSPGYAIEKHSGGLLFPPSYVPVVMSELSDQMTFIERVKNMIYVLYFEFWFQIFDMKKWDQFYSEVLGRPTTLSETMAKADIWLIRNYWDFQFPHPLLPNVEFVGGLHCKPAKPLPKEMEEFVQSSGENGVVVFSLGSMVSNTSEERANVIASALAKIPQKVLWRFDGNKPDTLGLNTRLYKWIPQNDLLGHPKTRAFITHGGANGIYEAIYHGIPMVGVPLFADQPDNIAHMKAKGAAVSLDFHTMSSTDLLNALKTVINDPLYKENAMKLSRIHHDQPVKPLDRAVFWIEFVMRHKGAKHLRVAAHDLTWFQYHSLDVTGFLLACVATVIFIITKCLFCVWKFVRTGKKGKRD
Protocol: (§1) Recombinant UGT isoform protein (1 mg/mL) was assayed for activity toward tested UAs as follows. The proteins were incubated in a buffer containing 0.1 M HEPES (pH 7.4), 8 mM MgCl2 and alamethicin (25 μg/mL) with either 0.05 mM substrate in total volume 70 µL (alamethicin was added to permeabilize the membrane). Substrates were also in buffer HEPES, pH 7.4. Reactions were started by the addition of UDPGA (5 mM) and were incubated for specified time at 37 °C. The reactions were stopped by the addition of 8.75 µL of 1 M HCl, followed by centrifugation at 13400 rpm for 10 min to pellet the denatured protein. The supernatant fractions were used for HPLC analysis. Control reactions omitting substrate were run with each assay. All incubations were performed in two repetitions.

P4502C19 = biological target: T2, P4502C19 (Homo sapiens, UniProt P33261); test: Metabolism with human recombinant P4502C19; conditions: 0.05 mM compound, 1 mg/mL P4502C19, 2 mM NADPH, 30 min
T2 construct: purchased Cypex, Dundee, Scotland, UK (through Tebu-Bio); host or cells: Escherichia coli (Bactosomes)
T2 sequence (P33261 whole entry): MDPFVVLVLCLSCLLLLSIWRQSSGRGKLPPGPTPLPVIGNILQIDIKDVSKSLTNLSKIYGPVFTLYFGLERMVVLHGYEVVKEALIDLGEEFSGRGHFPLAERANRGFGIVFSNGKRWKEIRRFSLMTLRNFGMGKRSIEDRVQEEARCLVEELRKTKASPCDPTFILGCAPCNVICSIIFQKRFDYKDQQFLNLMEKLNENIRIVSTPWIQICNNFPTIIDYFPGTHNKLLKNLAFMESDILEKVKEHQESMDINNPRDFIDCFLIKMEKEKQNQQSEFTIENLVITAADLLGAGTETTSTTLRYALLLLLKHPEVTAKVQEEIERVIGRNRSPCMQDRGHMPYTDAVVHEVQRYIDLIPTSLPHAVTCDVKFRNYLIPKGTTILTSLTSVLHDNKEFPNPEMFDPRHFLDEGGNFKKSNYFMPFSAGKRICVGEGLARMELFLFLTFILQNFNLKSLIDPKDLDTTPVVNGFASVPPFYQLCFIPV
Protocol: UT-RLMs (2 mg/mL) and P450-RLMs induced with Dex, 3MC, or PB and recombinant P4502C19 and P4503A4 (1 mg/mL) were assayed for activity toward tested UAs as follows. The proteins were incubated in a buffer containing 0.1 M HEPES (pH 7.4), 2 mM MgCl2 with 0.05 mM substrate in total volume 70 µL. Substrates were added also in buffer HEPES, pH 7.4. Reactions were started by the addition of NADPH (2 mM) and were incubated for specified time at 37 °C. The reactions were stopped by the addition of 8.75 µL of 1 M HCl, followed by centrifugation at 13,400 rpm for 10 min to pellet the denatured protein. The supernatant fractions were used for high-performance liquid chromatography (HPLC) analysis. Control reactions omitting substrate were run with each assay. All incubations were performed in two repetitions.

UGT 2B17 = biological target: T3, UGT 2B17 (Homo sapiens, UniProt O75795); test: Glucuronidation with recombinant UGT2B17; parameters: key: −: the lack of UGT activity; +: the significant UGT activity; conditions: 0.05 mM compound, 1 mg/mL UGT, 5 mM UDPGA
T3 construct: purchased Corning, NY, USA (through DIAG-MED, Poland); host or cells: baculovirus-insect cells (Supersomes)
T3 sequence (O75795 24-530): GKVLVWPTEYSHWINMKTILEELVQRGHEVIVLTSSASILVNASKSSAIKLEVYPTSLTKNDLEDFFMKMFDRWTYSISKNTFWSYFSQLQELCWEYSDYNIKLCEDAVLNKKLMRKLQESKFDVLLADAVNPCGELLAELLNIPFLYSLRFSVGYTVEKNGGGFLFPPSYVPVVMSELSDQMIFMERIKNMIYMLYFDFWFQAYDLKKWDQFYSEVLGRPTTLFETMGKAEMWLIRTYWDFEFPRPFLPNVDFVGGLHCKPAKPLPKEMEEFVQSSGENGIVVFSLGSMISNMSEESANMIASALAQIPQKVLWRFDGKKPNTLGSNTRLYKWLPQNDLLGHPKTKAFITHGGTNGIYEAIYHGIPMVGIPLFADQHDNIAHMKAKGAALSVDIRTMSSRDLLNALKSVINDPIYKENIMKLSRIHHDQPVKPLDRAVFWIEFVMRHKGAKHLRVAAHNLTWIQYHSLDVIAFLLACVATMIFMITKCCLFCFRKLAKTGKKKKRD
Protocol: as §1

UGT1A1 = biological target: T4, UGT1A1 (Homo sapiens, UniProt P22309); test: Glucuronidation with recombinant UGT1A1; parameters: His tag; purchased Corning, NY, USA (through DIAG-MED, Poland); host or cells: baculovirus-insect cells (Supersomes); Results say Sf9 cells; key: −: the lack of UGT activity; +: the significant UGT activity; conditions: 0.05 mM compound, 1 mg/mL UGT, 5 mM UDPGA
T4 sequence (P22309 26-533): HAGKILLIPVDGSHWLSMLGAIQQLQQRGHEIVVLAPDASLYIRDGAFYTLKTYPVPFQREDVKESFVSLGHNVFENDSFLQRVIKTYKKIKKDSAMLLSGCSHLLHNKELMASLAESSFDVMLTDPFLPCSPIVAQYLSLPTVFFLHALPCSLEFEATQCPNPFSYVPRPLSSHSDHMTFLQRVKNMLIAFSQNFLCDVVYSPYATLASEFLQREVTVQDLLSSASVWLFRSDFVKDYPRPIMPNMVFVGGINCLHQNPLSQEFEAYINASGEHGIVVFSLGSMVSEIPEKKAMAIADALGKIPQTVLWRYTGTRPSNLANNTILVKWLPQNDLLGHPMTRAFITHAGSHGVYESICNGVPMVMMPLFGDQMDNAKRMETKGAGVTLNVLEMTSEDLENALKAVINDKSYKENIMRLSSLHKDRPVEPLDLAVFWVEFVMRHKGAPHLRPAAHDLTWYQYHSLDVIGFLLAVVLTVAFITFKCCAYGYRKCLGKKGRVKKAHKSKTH
Protocol: as §1

Glucuronidation potency UGT 2B4 (UGT 2B4)	substrate transformed (P4502C19) [%]	Glucuronidation potency UGT 2B17 (UGT 2B17)	Glucuronidation potency UGT 1A1 (UGT1A1)	Structure (SMILES)
−	59	−	−	CN(CCCNc1c2ccccc2nc2cccc([N+](=O)[O-])c12)CCCNc1ccc2ncn3c4ccccc4c(=O)c1c23 [C-2028]
−	11	−	+	Cc1ccc([N+](=O)[O-])c2c(NCCCN(C)CCCNc3ccc4ncn5c6ccc(O)cc6c(=O)c3c45)c3ccccc3nc12 [C-2045]
−	~64	−	−	Cc1ccc([N+](=O)[O-])c2c(NCCCN(C)CCCNc3ccc4ncn5c6ccccc6c(=O)c3c45)c3ccccc3nc12 [C-2053]
